Measurements reported in PMC10854894, “A New Benzo[6,7]oxepino[3,2-b] Pyridine Derivative Induces Apoptosis in Canine Mammary Cancer Cell Lines” (Animals : an Open Access Journal from MDPI, 2024).
Where two headings read alike, the source gives them in different places.

Key:
Experiment in all cases: MTT cell proliferation/cytotoxicity assay
Type in all cases: cell-based, canine
Conditions in all cases: Canis lupus familiaris, read-out: Half-Maximal Inhibitory Concentration (IC50)
REM134 cells = system: REM134 cells
Protocol: (§1) The cytotoxic effects of the three BZOP derivatives were studied via the 3-(4,5-Dimethyl-2-thiazolyl)-2,5-diphenyl-2H-tetrazolium bromide (MTT) assay. The REM134, CMGT071020, and MDCK cell lines were seeded at a density of 5 × 10^3 cells/well in 96-well plates and allowed to grow for 24 h. They were then treated with the three BZOP derivatives at various concentrations (0–300 µM) for 24 or 48 h, whereas cells treated with the culture medium containing 0.1% dimethyl sulfoxide (DMSO) were used as a negative control as the compounds were dissolved in DMSO. Subsequently, the cells were incubated with 10 µL of an MTT solution (Sigma, St. Louis, MO, USA) for 4 h. After the incubation with MTT solution, 100 µL of a solubilization solution was added to dissolve water-insoluble purple formazan crystals, and the plate was incubated overnight at 37 °C in 5% CO2. The absorbance of the formazan solution was measured using a Synergy H1 hybrid multi-mode microplate reader (BioTek, Winooski, VT, USA) at 570 nm. The experiment was conducted with four replicates, and the relative cell viability (%) of the treated cells was expressed as a percentage relative to the untreated control cells, which were considered to have 100% viability.

CMGT071020 cells = system: CMGT071020 cells
Protocol: as §1

MDCK cells = system: MDCK cells
Protocol: as §1

SMILES: [O-][n+]1cccc2c1C=Cc1ccncc1O2 [OPDOc, oxepino(3,2-b:7,6-c’)dipyridine 1-oxide]
- IC50 (REM134 cells; REM134, 24 h): > 300 µM
- IC50 (REM134 cells; REM134, 48 h): > 300 µM
- IC50 (CMGT071020 cells; CMGT071020, 24 h): > 300 µM
- IC50 (CMGT071020 cells; CMGT071020, 48 h): > 300 µM
- IC50 (MDCK cells; 24 h): > 300 µM
- IC50 (MDCK cells; 48 h): > 300 µM

SMILES: [O-][n+]1cccc2c1C=Cc1cccnc1O2 [OPDOb, oxepino(2,3-b:6,7-b’)dipyridine 1-oxide]
- IC50 (REM134 cells; REM134, 24 h): > 300 µM
- IC50 (REM134 cells; REM134, 48 h): 172 µM
- IC50 (CMGT071020 cells; CMGT071020, 24 h): > 300 µM
- IC50 (CMGT071020 cells; CMGT071020, 48 h): > 300 µM
- IC50 (MDCK cells; 24 h): > 300 µM
- IC50 (MDCK cells; 48 h): > 300 µM
